Measurements: a compilation of properties of binary mixtures (doi:10.1016/j.molliq.2020.112507)

Experiment: xn = mol fraction of the nth substance listed
Conditions: 100 kPa

Which speed of sound (298.15 K, x1 = 1) does the source give for `CCCC[n+]1ccn(C)c1.COS(=O)(=O)[O-]` + CCCC#N here?
The speed of sound was 1654.9 m/s.

And the speed of sound (308.15 K, x1 = 1)?
The speed of sound was 1630.2 m/s.

What about the speed of sound (313.15 K, x1 = 1) of the same molecule?
Its speed of sound is 1618.2 m/s.

What does the source list for `CCCC#N` + CCCC[n+]1ccn(C)c1.COS(=O)(=O)[O-]?
speed of sound (298.15 K, x2 = 0): 1279.9 m/s; speed of sound (298.15 K, x2 = 0.2128): 1395.9 m/s; speed of sound (298.15 K, x2 = 0.3714): 1468.7 m/s; speed of sound (298.15 K, x2 = 0.4263): 1490.6 m/s; speed of sound (298.15 K, x2 = 0.5115): 1521.4 m/s; speed of sound (298.15 K, x2 = 0.6345): 1559.7 m/s; speed of sound (298.15 K, x2 = 0.8065): 1605.3 m/s; speed of sound (298.15 K, x2 = 0.9072): 1630.9 m/s; speed of sound (303.15 K, x2 = 0): 1260.6 m/s; speed of sound (303.15 K, x2 = 0.1117): 1323.5 m/s; speed of sound (303.15 K, x2 = 0.2128): 1378.9 m/s; speed of sound (303.15 K, x2 = 0.3714): 1452.9 m/s; speed of sound (303.15 K, x2 = 0.4263): 1475.5 m/s; speed of sound (303.15 K, x2 = 0.6345): 1545.8 m/s; speed of sound (303.15 K, x2 = 0.7161): 1568.8 m/s; speed of sound (303.15 K, x2 = 0.9072): 1618.2 m/s; speed of sound (308.15 K, x2 = 0): 1241 m/s; speed of sound (308.15 K, x2 = 0.1117): 1305.2 m/s; speed of sound (308.15 K, x2 = 0.2128): 1361.8 m/s; speed of sound (308.15 K, x2 = 0.3714): 1437.1 m/s; speed of sound (308.15 K, x2 = 0.4263): 1460.3 m/s; speed of sound (308.15 K, x2 = 0.6345): 1531.9 m/s; speed of sound (308.15 K, x2 = 0.8065): 1579.1 m/s; speed of sound (308.15 K, x2 = 0.9072): 1605.5 m/s; speed of sound (313.15 K, x2 = 0): 1221.2 m/s; speed of sound (313.15 K, x2 = 0.1117): 1286.9 m/s; speed of sound (313.15 K, x2 = 0.2128): 1344.7 m/s; speed of sound (313.15 K, x2 = 0.3714): 1421.4 m/s; speed of sound (313.15 K, x2 = 0.5115): 1477.3 m/s; speed of sound (313.15 K, x2 = 0.7161): 1541.4 m/s; speed of sound (313.15 K, x2 = 0.8065): 1566 m/s; speed of sound (313.15 K, x2 = 0.9072): 1592.8 m/s
